# Results reported in patent publication EP0091090A2, “Bipyridine substituted imidazolidene copper complex and its use in food-producing animals, and bipyridine, 2,2'-(2-imidazolidinylidene) di-copper complex and use in animals” (INTERNATIONAL MINERALS & CHEMICAL CORPORATION, priority 1982, dated 1983).
# Several values for one entry are separate records, joined by “and”; a condition that tells them apart may be missing. Equal entries are not always repeated. Where two headings read alike, the source gives them in different places.
# Assays:
# rumen microflora = experiment: Batch culture assay for the degradation of starch (Example 3); assay type: cell-based, steers
# Text: The subject Formula ^IV compound was also compared to monensin in another rumen fluid batch culture test as set forth below. The test was designed to screen compounds for inhibition of starch breakdown by the rumen microflora. […] It is considered more desirable to avoid degradation of starch in the rumen so that it is passed on into the abomasum where it can be digested more efficiently. […] Test Procedure: Animals - Mature fistulated steers were maintained on concentrate, roughage, or concentrate/ roughage (50/50) rations. Animals were fed twice daily at 8:00 A.M. and 4:00 P.M.
# Culture Assays - Approximately two liters of rumen fluid were collected from fistulated animals with the use of a hand pump. The rumen fluid, collected in a stoppered flask, was then immediately taken to the laboratory for processing. Samples were taken at 8:00 A.M. just prior to the first feeding or at 1:00 P.M. (ca. 4-5 hours after the first feeding). Rumen fluid was strained through six layers of cotton gauze cloth into a flask that was flushed with C02 gas. The filtrate was centrifuged for 5 minutes at 100 rpm in a Sorvall centrifuge to remove large particulate material. The supernatant was again passed through six layers of gauze into a flask under C02 gas and stoppered.
# Batch Culture Assay for the Degradation of Starch - Twenty-five ml of rumen fluid prepared as above was added to serum vials (Wheaton Glass, 100 ml capacity) containing 0.25-1.00% final concentration starch as an energy substrate in 25 ml batch culture assay buffer. The serum vials were sealed under C02 gas phase, and incubations were carried out for 20-24 hours at 39°C on a New Brunswick rotary shaker (250 rpm). Each experimental vial was done in triplicate. The corn starch used in degradation experiments was previously washed with distilled water several times, filtered through an 8 micron (47 mm) Millipore filter, and dried at 90°C for 24 hours.
# At intervals of 0 and 24 hours, the entire contents in vials were centrifuged at 250 rpm for 5 minutes. The supernatants were carefully removed with a pipet and the remaining "starch pellets" resuspended in water and passed through borosilicate glass microfiber prefilters (Millipore AP 20-047-00). Filters were dried in an oven for 24 hours at 90°C, cooled and then weighed. The amount of starch remaining after 24 hours' incubation was compared with the amount present at 0 hours and the per cent of substrate degraded calculated.
# [1] = system: rumen fluid batch culture; experiment: Rumen fluid batch culture test: volatile fatty acid, gas (CH4 + H2), protein and amino acid accumulation (Example 2); assay type: cell-based, steers
# Experimental: The above Formula IV composition was tested to determine its effectiveness as a feed additive for ruminants. The initial tests were in rumen fluid batch culture systems to determine the effect of the compound on volatile fatty acid/methane ratios (VFA/CH4). […] Test Procedure: A 50/50 mixture of ground corn and ground alfalfa was used as the substrate for the subject rumen fluid batch culture test. The compound (Formula IV ) was present in the rumen fluid in three separate test samples at 8.33, 25 and 75 ppm, respectively. On day 1, rumen fluid was obtained from mature fistulated steers on 50/50 concentrate/roughage diets. The rumen fluid (RF) was strained through three layers of gauze cloth and equilibrated with C02 gas. Wheaton serum vials (125 ml) were prepared ahead with 20 ml continuous batch buffer and 100 mg 50/50 ground corn/ground alfalfa. Controls and compounds (dissolved in acetone) were set up according to desired levels. The vials were kept under C02 gas until 20 ml of the strained RF was added. The vials were sealed and incubated at 39°C for 24 hours in a hot water bath. On successive days, gas samples (0.1 ml) were drawn for gas chromatography analysis before transferring 20 ml of the batch culture to another vial containing 20 ml of buffer, 100 mg substrate, and the corresponding compound. The remaining 20 ml was inoculated with 2 ml 6N HC1 and centrifuged at 15,000 rpm for 15 minutes. Ether extracts were prepared for volatile fatty acid (VFA) analysis. Some minor adjustments were made in the termperatures on the Hewlett-Packard 5750 Gas-Liquid Chromatograph used for VFA analysis when the glass column used was changed from 1/4 inch diameter to 1/8 inch diameter. Injection Port = 220°C Column Oven = 170°C Flame Detector = 250°C Only 4 minutes was needed to record the sample instead of the previous 7 minutes.
# [2] = system: rumen fluid batch culture; experiment: Batch rumen VFA and gas production screen (Example 8); assay type: cell-based, steers
# Experimental: The above Formula II composition was tested to determine its effectiveness as a feed additive for ruminants. The initial tests were in rumen fluid batch culture systems to determine the effect of the compound on volatile fatty acid/methane ratios (VFA/CH4).
# A 50/50.mixture of ground corn and ground alfalfa was used as the substrate for the subject rumen fluid batch culture test. The compound (Formula II) was present in the rumen fluid at 75 ppm.
# On day 1, rumen fluid was obtained from mature fistulated steers on 50/50 concentrate/roughage diets. The rumen fluid (RF) was strained through three layers of gauze cloth and equilibrated with C02 gas. Wheaton serum vials (125 ml) were prepared ahead with 20 ml continuous batch buffer and 100 mg 50/50 ground corn/ground alfalfa. Controls and compounds (dissolved in acetone) were set up according to indicated levels. The vials were kept under C02 gas until 20 ml of the strained RF was added. The vials were sealed and incubated at 39°C for 24 hours in a hot water bath. On successive days, gas samples (0.1 ml) were drawn for gas chromatography analysis before transferring 20 ml of the batch culture to another vial containing 20 ml of buffer, 100 mg substrate, and the corresponding compound. The remaining 20 ml was inoculated with 2 ml 6N HCl and centrifuged at 15,000 rpm for 15 minutes. Ether extracts were prepared for volatile fatty acid (VFA) analysis. Some minor adjustments were made in the temperatures on the Hewlett-Packard 5750 Gas-Liquid Chromatograph used for VFA analysis when the glass column used was changed from 1/2 inch diameter to 1J8 inch diameter.
# About 4 minutes was needed to record the sample.
# In the above tests, four control groups were run and the mean established.
# [3] = Chick rye diet test system (Example 6); assay type: in vivo; details: compared to positive control (penicillin or bacitracin)
# Text: The Formula III compound can be tested in a chick rye diet test system. […] Useful antibiotics for the positive control comparison are penicillin or bacitracin.
# [4] = 75 ppm, single runs of duplicate
molecule,measurement,setting,value
"CC[C@@]1([C@@H]2O[C@@H]([C@H]3O[C@@](O)(CO)[C@H](C)C[C@@H]3C)C[C@@H]2C)CC[C@H]([C@]2(C)CC[C@]3(C[C@H](O)[C@@H](C)[C@@H]([C@@H](C)[C@@H](OC)[C@H](C)C(=O)O)O3)O2)O1 [Monensin, reference compound]",effect on starch fermentation,rumen microflora,neither monensin or lasalocid had any effect
same,AA,[1],0.51 µmol/mL and 0.28 µmol/mL and 0.29 µmol/mL and 0.34 µmol/mL and 0.30 µmol/mL and 0.44 µmol/mL
same,CH4 produced on Day 10,[1],49
same,Caloric Value of CH4,[1],10.33
same,Caloric Value of H2,[1],0
same,Caloric Value of HAc,[1],105.04
same,Caloric Value of HBu,[1],50.34
same,Caloric Value of HFo,[1],0.98
same,Caloric Value of HPr,[1],180.46
same,Caloric Value of HiBu,[1],5.11
same,Caloric Value of HiVal,[1],2.17
same,"Caloric Value, Total (VFA's)",[1],344.10
same,Gross Cal Remaining in Feed,[1],364.76 cal
same,H2,[1],0 µ Moles
same,H2 produced on Day 10,[1],0
same,HAc (acetate) produced on Day 10,[1],501.6
same,HBu (butyrate) produced on Day 10,[1],96.8
same,HFo (formate) produced on Day 10,[1],15.60
same,HPr (propionate) produced on Day 10,[1],494.4
same,HiBu (isobutyrate) produced on Day 10,[1],14.0
same,HiVal (isovalerate) produced on Day 10,[1],3.2
same,Total VFA's produced on Day 10,[1],"1,125.6"
same,Acetate,[2],7.2 Mu Moles/ml and 5.6 Mu Moles/ml
same,"Acetate, Mean",[2],6.4 Mu Moles/ml
same,Butyrate,[2],7.8 Mu Moles/ml and 7.9 Mu Moles/ml
same,"Butyrate, Mean",[2],7.6 Mu Moles/ml
same,CH4 (%),[2],5.6% and 6.2%
same,"CH4 (%), Average",[2],5.8%
same,"CH4, Percent Change",[2],-49.4%
same,H2 (%),[2],0.0%
same,"H2 (%), Average",[2],0.0%
same,Propionic,[2],20.7 Mu Moles/ml and 18.7 Mu Moles/ml
same,"Propionic, Mean",[2],19.7 Mu Moles/ml
same,Total,[2],32.2 Mu Moles/ml
same,"Total, Mean",[2],38.8 Mu Moles/ml
"CC[C@@H](C(=O)[C@@H](C)[C@@H](O)[C@H](C)CCc1ccc(C)c(O)c1C(=O)O)[C@H]1O[C@](CC)([C@H]2CC[C@](O)(CC)[C@H](C)O2)C[C@@H]1C [lasalocid, reference compound]",effect on starch fermentation,rumen microflora; 25 ppm,neither monensin or lasalocid had any effect
"Pyridine, 2,2'-(2-imidazolidinyl- idene)di-, compound with CuCl2 (1/1) [Formula II Compound]",activity in chick rye diet test,[3],promising activity
same,acetate production,[2]; 75 ppm,"depressed acetate production compared to the negative control, and was comparable to monensin"
same,"CH4 (%), Average","[2]; 75 ppm, average",11.0%
same,"H2 (%), Average","[2]; 75 ppm, average",0.0%
same,"CH4, Percent Change","[2]; 75 ppm, change versus control average, 1440 min",-6.0%
same,"Acetate, Mean","[2]; 75 ppm, mean of duplicate",8.0 Mu Moles/ml
same,"Butyrate, Mean","[2]; 75 ppm, mean of duplicate",9.6 Mu Moles/ml
same,"Propionic, Mean","[2]; 75 ppm, mean of duplicate",14.8 Mu Moles/ml
same,"Total, Mean","[2]; 75 ppm, mean of duplicate",32.4 Mu Moles/ml
same,CH4 (%),"[2]; 75 ppm, single runs",11.2% and 10.8%
same,H2 (%),"[2]; 75 ppm, single runs",0.0%
same,Acetate,[2]; [4],6.8 Mu Moles/ml and 9.2 Mu Moles/ml
same,Butyrate,[2]; [4],8.9 Mu Moles/ml and 10.2 Mu Moles/ml
same,Propionic,[2]; [4],14.6 Mu Moles/ml and 15.0 Mu Moles/ml
same,Total,[2]; [4],38.4 Mu Moles/ml and 34.4 Mu Moles/ml
same,activity in rumen fluid batch culture tests,[2]; compared with iron and nickel salts of Formula I,best activity
same,propionate production,[2]; expected in tests to establish optimum dosage level,favorable shift to increased propionate production
